Series [1] can be described thus: Interactions with calcium ions (observation of precipitate in acetate buffer pH=4.5 after adding equimolar calcium ions). The conditions noted are these: for Observation: pH=4.5 buffer, observed for 3 h. Format: physicochemical. The procedure: Solution A: 0.3 mole/l calcium diethanesulfonate. Calcium carbonate ([…], 15 mmole) is dissolved by adding a 1.0 mole/l ethanesulfonic acid solution until a stable pH=5.3 is obtained. The solution is diluted with water to 50 ml.
Solution B: 0.03 mole/l calcium diethanesulfonate. One part of solution A is diluted with 9 parts of water.
Solution C: 0.05 mole/l sodium acetate/acetic acid buffer with pH=4.5. Glacial acetic acid (3.0 g, 0.05 mole) is dissolved in 800 ml of water, titrated with 1 mole/l sodium hydroxide solution to pH=4.5 and diluted to 1 l.
The test compound is dissolved in 50 ml of solution C. A clear solution is obtained in a few minutes. After 5 minutes an equimolar amount of calcium ions are added by adding 1 ml of solution A or B. The mixture is observed for 3 h.

A short description of series [2]: Oral bioavailability of estramustine in dogs (AUC of estramustine after oral dosing). The following applies: oral water solution, dose equivalent to 140 mg estramustine phosphate, fasting; for AUC of estramustine, Mean ± S.D.: four Beagle dogs. Format: in vivo, Beagle dogs. The procedure: Different formulations were administered orally to groups of four Beagle dogs. The dose was equivalent to 140 mg of estramustine phosphate. The animals were fasting before dosing and given 50 ml 0.01 M hydrochloric acid after the dose. Blood samples were analysed for estramustine by means of gas chromatography. (Andersson, S-B, et al., Acta Pharm.Suec. 19, 1 (1982).
The following formulations were used: […]
1. Water solution of estramustine phosphate disodium salt
2. Water solution of compound No. 6:2
3. Water solution of compound No. 4:2

Here are results for three compounds from patent US5036062A, “Novel esters” (Pharmacia AB, priority 1988, dated 1991).

Where a name gives a salt, the structure may show the parent alone.

Take `C[C@]12CC[C@@H]3c4ccc(OC(=O)N(CCCl)CCCl)cc4CC[C@H]3[C@@H]1CC[C@@H]2OC(=O)CN` [Compound No. 6:2, 17-estramustine aminoacetate, methanesulfonate]: the Observation result in series [1] (178 mg, 0.3 mmole compound, solution A, 0.3 mmole calcium ions) is “Remains clear”. The AUC of estramustine in series [2] (Dog No. 8727) was found to be 100 ng/mlxhours; in series [2] (Dog No. 8729), 140 ng/mlxhours; in series [2] (Dog No. 8731), 45.8 ng/mlxhours; in series [2] (Dog No. 8733) it was 184.8 ng/mlxhours. The “AUC of estramustine, Mean ± S.D.” value in series [2] amounted to 118 ± 59 ng/mlxhours.
As for `C[C@]12CC[C@@H]3c4ccc(OC(=O)N(CCCl)CCCl)cc4CC[C@H]3[C@@H]1CC[C@@H]2OP(=O)(O)O` [Estramustine phosphate disodium salt, 17-estramustine dihydrogen phosphate ester, reference compound], the Observation entry in series [1] (16 mg, 0.03 mmole compound, solution B, 0.03 mmole calcium ions) was “Becomes unclear”. For the same compound, in series [1] (novel compounds at concentrations 10 times higher than those of estramustine phosphate disodium salt and calcium ions giving immediate undissolved calcium salt), the “precipitate in the presence of calcium ions (summary)” value is “immediate formation of an undissolved estramustine phosphate calcium salt”. In addition, the AUC of estramustine in series [2] (Dog No. 8727) turned out to be 147 ng/mlxhours; in series [2] (Dog No. 8729), 16.4 ng/mlxhours; in series [2] (Dog No. 8731), 34.0 ng/mlxhours; in series [2] (Dog No. 8733) it was 19.5 ng/mlxhours. Besides, the “AUC of estramustine, Mean ± S.D.” value in series [2] (listed as Etramustine phosphate disodium salt) was 54.3 ± 62.4 ng/mlxhours.
With `CNCC(=O)O[C@H]1CC[C@H]2[C@@H]3CCc4cc(OC(=O)N(CCCl)CCCl)ccc4[C@H]3CC[C@]12C` [Compound No. 4:2, 17-Estramustine N-methylaminoacetate, ethanesulfonate], the AUC of estramustine in series [2] (Dog No. 8729) is 94.0 ng/mlxhours; in series [2] (Dog No. 8731), 79.8 ng/mlxhours; in series [2] (Dog No. 8735), 2.6 ng/mlxhours; in series [2] (Dog No. 8742), 153.4 ng/mlxhours. In addition, in series [2], the “AUC of estramustine, Mean ± S.D.” value turned out to be 82.6 ± 62.0 ng/mlxhours.
